Laboratory results reported in PubChem BioAssay AID330 (DTP/NCI, 2004).
“And” between values parts separate entries of the source, which are not always exact repeats. Identical values can stand only once. Inconclusive results and toxic doses are left out.

System: P388 leukemia ip, CD2F1 mice, survival T/C
Assay: NCI In Vivo Anticancer Drug Screen. Data for tumor model P388 Leukemia (intraperitoneal) in CD2F1 (CDF1) mice
Conditions: endpoint: median survival time, higher = longer survival
In short: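 Mice carrying the transplanted tumor received test compound or vehicle. Survival was recorded in each group, and the value is the treated-group measurement divided by that of the vehicle-treated control group.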

[1] = dose: 60.0 mg/kg/injection, schedule: Q01DX005 (ip), vehicle: saline with Tween-80
[2] = dose: 120.0 mg/kg/injection, schedule: Q01DX005 (ip), vehicle: saline with Tween-80
[3] = dose: 240.0 mg/kg/injection, schedule: Q01DX005 (ip), vehicle: saline with Tween-80
[4] = dose: 50.0 mg/kg/injection, schedule: Q01DX005 (ip), vehicle: saline
[5] = dose: 100.0 mg/kg/injection, schedule: Q01DX005 (ip), vehicle: saline
[6] = dose: 12.5 mg/kg/injection, schedule: Q01DX009 (ip), vehicle: distilled water + Tween-80
[7] = dose: 25.0 mg/kg/injection, schedule: Q01DX009 (ip), vehicle: distilled water + Tween-80
[8] = dose: 50.0 mg/kg/injection, schedule: Q01DX009 (ip), vehicle: distilled water + Tween-80
[9] = dose: 100.0 mg/kg/injection, schedule: Q01DX009 (ip), vehicle: distilled water + Tween-80
[10] = dose: 200.0 mg/kg/injection, schedule: Q01DX009 (ip), vehicle: distilled water + Tween-80
[11] = dose: 100.0 mg/kg/injection, schedule: Q04DX003 (ip), vehicle: saline with Tween-80
[12] = dose: 200.0 mg/kg/injection, schedule: Q04DX003 (ip), vehicle: saline with Tween-80
[13] = dose: 400.0 mg/kg/injection, schedule: Q04DX003 (ip), vehicle: saline with Tween-80
[14] = dose: 50.0 mg/kg/injection, schedule: Q01DX005 (ip), vehicle: saline with Tween-80
[15] = dose: 100.0 mg/kg/injection, schedule: Q01DX005 (ip), vehicle: saline with Tween-80
[16] = dose: 60.0 mg/kg/injection, schedule: Q01DX005 (ip), vehicle: Klucel (hydroxypropylcellulose) (HPC)
[17] = dose: 120.0 mg/kg/injection, schedule: Q01DX005 (ip), vehicle: Klucel (hydroxypropylcellulose) (HPC)
[18] = dose: 240.0 mg/kg/injection, schedule: Q01DX005 (ip), vehicle: Klucel (hydroxypropylcellulose) (HPC)
[19] = dose: 50.0 mg/kg/injection, schedule: Q01DX009 (ip), vehicle: saline with Tween-80
[20] = dose: 100.0 mg/kg/injection, schedule: Q01DX009 (ip), vehicle: saline with Tween-80
[21] = dose: 200.0 mg/kg/injection, schedule: Q01DX009 (ip), vehicle: saline with Tween-80
[22] = dose: 50.0 mg/kg/injection, schedule: Q01DX009 (ip), vehicle: Klucel (hydroxypropylcellulose) (HPC)
[23] = dose: 100.0 mg/kg/injection, schedule: Q01DX009 (ip), vehicle: Klucel (hydroxypropylcellulose) (HPC)
[24] = dose: 200.0 mg/kg/injection, schedule: Q01DX009 (ip), vehicle: Klucel (hydroxypropylcellulose) (HPC)

For `Oc1ccc(C(O)CNCCCCCCNCC(O)c2ccc(O)c(O)c2)cc1O` (configuration not stated), the T/C (dose: 33.0 mg/kg/injection, schedule: Q01DX009 (ip), vehicle: saline) was 99 % of control and 88 % of control, the T/C (dose: 50.0 mg/kg/injection, schedule: Q01DX009 (ip), vehicle: saline) was 121 % of control and 87 % of control and 96 % of control and the T/C (dose: 75.0 mg/kg/injection, schedule: Q01DX009 (ip), vehicle: saline) was 96 % of control.

With `COc1cc2c(c(OC)c1OC)-c1ccc(OC)c(=O)cc1[C@@H](N(C)C=O)CC2` the T/C (dose: 1.25 mg/kg/injection, schedule: Q01DX009 (ip), vehicle: Klucel (hydroxypropylcellulose) (HPC)) was 171 % of control.

With `N#Cc1c(-c2ccccc2)ssc1=S` the T/C [1] was 104 % of control, the T/C [2] was 103 % of control and the T/C [3] was 106 % of control.

For `CCCCCCNCC(=O)OCC`, the T/C [4] was 101 % of control, the T/C [5] was 106 % of control and the T/C (dose: 200.0 mg/kg/injection, schedule: Q01DX005 (ip), vehicle: saline) was 110 % of control.

`O=C(OCC1OC(C2N(c3ccccc3)CCN2c2ccccc2)C(OC(=O)c2ccccc2)C1OC(=O)c1ccccc1)c1ccccc1` (configuration not stated) was tested, and the T/C [6] was 102 % of control, the T/C [7] was 102 % of control and the T/C [8] was 94 % of control. For the same molecule, the T/C [9] was 102 % of control and the T/C [10] was 93 % of control.

`O=C1C=C(Nc2ccccc2)CCC1` was tested, and the T/C [11] was 100 % of control, the T/C [12] was 105 % of control and the T/C [13] was 105 % of control.

With `CC(=O)Nn1c(N)nc2cc(C)ccc21` the T/C (dose: 200.0 mg/kg/injection, schedule: Q01DX001 (ip), vehicle: saline) was 98 % of control and the T/C (dose: 400.0 mg/kg/injection, schedule: Q01DX001 (ip), vehicle: saline) was 93 % of control.

In the case of `COc1ccc(N=C(c2ccccc2)C2C(=O)c3ccccc3C2=O)cc1`, the T/C [14] is reported as 103 % of control, the T/C [15] is reported as 108 % of control and the T/C (dose: 200.0 mg/kg/injection, schedule: Q01DX005 (ip), vehicle: saline with Tween-80) is reported as 112 % of control.

For `CCOC(=O)C1CC1c1c(C)c2cc3[nH]c(cc4nc(cc5nc(cc1[nH]2)C(C)=C5CCC(=O)OC)C(CCC(=O)OC)=C4C)c(C)c3C1CC1C(=O)OCC` (configuration not stated), the T/C [14] was 93 % of control and the T/C [15] was 86 % of control.

For `CC1([N+](=O)[O-])C(=O)C2(N3CCCCC3)CCCC2C1c1ccccc1` (configuration not stated), the T/C [16] was 99 % of control, the T/C [17] was 96 % of control and the T/C [18] was 97 % of control.

In the case of `CCCCCCCC(=O)c1c(O)c2ccccc2oc1=O`, the T/C (dose: 15.0 mg/kg/injection, schedule: Q01DX005 (ip), vehicle: saline with Tween-80) is reported as 102 % of control, the T/C (dose: 30.0 mg/kg/injection, schedule: Q01DX005 (ip), vehicle: saline with Tween-80) is reported as 105 % of control and the T/C [1] is reported as 103 % of control and 96 % of control.

With `Nc1ccc2c(C(F)(F)F)cc(=O)[nH]c2c1` the T/C (dose: 25.0 mg/kg/injection, schedule: Q01DX005 (ip), vehicle: saline with Tween-80) was 100 % of control, the T/C [14] was 91 % of control and the T/C [15] was 92 % of control.

For `Nc1nc2nc(/N=N/SCCC(=O)O)[nH]c2c(=O)[nH]1`, the T/C [14] was 105 % of control and the T/C [15] was 108 % of control.

`[CH3][Sn]([CH3])([CH3])[O]C(=O)CNC(=O)c1ccccc1` was tested, and the T/C (dose: 1.56 mg/kg/injection, schedule: Q01DX001 (ip), vehicle: Klucel (hydroxypropylcellulose) (HPC)) was 103 % of control and the T/C (dose: 3.12 mg/kg/injection, schedule: Q01DX001 (ip), vehicle: Klucel (hydroxypropylcellulose) (HPC)) was 103 % of control.

In the case of `O=C(NC1COB(c2cc(C(F)(F)F)cc(C(F)(F)F)c2)OC1c1ccc([N+](=O)[O-])cc1)C(Cl)Cl` (configuration not stated), the T/C [16] is reported as 100 % of control, the T/C [17] is reported as 100 % of control and the T/C [18] is reported as 99 % of control.

For `CCCCC[CH2][Sn]([CH2]C)([CH2]C)[O]C(C)=O`, the T/C (dose: 0.5 mg/kg/injection, schedule: Q01DX009 (ip), vehicle: saline with Tween-80) was 109 % of control, the T/C (dose: 1.0 mg/kg/injection, schedule: Q01DX009 (ip), vehicle: saline with Tween-80) was 113 % of control and the T/C (dose: 2.0 mg/kg/injection, schedule: Q01DX009 (ip), vehicle: saline with Tween-80) was 109 % of control.

In the case of `CC1CC[N-]C(N)C1.CC1CC[N-]C(N)C1.[Cl][Pt+2][Cl]` (configuration not stated), the T/C (dose: 100.0 mg/kg/injection, schedule: Q01DX001 (sc), vehicle: olive oil, sesame oil, peanut oil) is reported as 106 % of control, the T/C (dose: 200.0 mg/kg/injection, schedule: Q01DX001 (sc), vehicle: olive oil, sesame oil, peanut oil) is reported as 106 % of control and the T/C (dose: 400.0 mg/kg/injection, schedule: Q01DX001 (sc), vehicle: olive oil, sesame oil, peanut oil) is reported as 107 % of control.

In the case of `O=S(=O)(Cc1ccccc1)/N=C/c1ccccc1`, the T/C [19] is reported as 103 % of control and 105 % of control, the T/C [20] is reported as 99 % of control and 105 % of control and the T/C [21] is reported as 107 % of control and 123 % of control.

With `COC(=O)c1ccc(OP(=O)(N(C)C)N(C)C)cc1` the T/C (dose: 3.12 mg/kg/injection, schedule: Q01DX009 (ip), vehicle: saline with Tween-80) was 98 % of control and 97 % of control, the T/C (dose: 6.25 mg/kg/injection, schedule: Q01DX009 (ip), vehicle: saline with Tween-80) was 96 % of control and the T/C (dose: 12.5 mg/kg/injection, schedule: Q01DX009 (ip), vehicle: saline with Tween-80) was 104 % of control and 96 % of control.

For `COc1ccc2c3c([nH]c2c1)C(C)=NCC3`, the T/C [4] was 100 % of control and the T/C [5] was 105 % of control.

For `COc1ccc(NC(=O)Nc2ccc(Cl)cc2)nn1`, the T/C [22] was 103 % of control, the T/C [23] was 101 % of control and the T/C [24] was 94 % of control.

With `CS(=O)(=O)Oc1ccc([N+](=O)[O-])cc1` the T/C [22] was 98 % of control, the T/C [23] was 107 % of control and the T/C [24] was 114 % of control.

For `CC(=O)OCc1ccncc1`, the T/C [6] was 95 % of control, the T/C [7] was 101 % of control and the T/C [8] was 102 % of control. For the same molecule, the T/C [9] was 110 % of control, the T/C [10] was 100 % of control and the T/C (dose: 400.0 mg/kg/injection, schedule: Q01DX009 (ip), vehicle: distilled water + Tween-80) was 92 % of control.

In the case of `CC12CC3(C)CC(C)(C1)CC(C(Cl)C(=O)NC(C)(C)C)(C2)C3` (configuration not stated), the T/C [22] is reported as 97 % of control, the T/C [23] is reported as 93 % of control and the T/C [24] is reported as 107 % of control.

`CCOC(=O)c1csc(=S)[nH]1` was tested, and the T/C [1] was 107 % of control, the T/C [2] was 101 % of control and the T/C [3] was 100 % of control.

With `CC([NH-])C(=O)O.CC([NH-])C(=O)O.[Cu+2]` (configuration not stated) the T/C (dose: 12.5 mg/kg/injection, schedule: Q01DX009 (ip), vehicle: Klucel (hydroxypropylcellulose) (HPC)) was 99 % of control.

With `O=C(N/N=C/c1ccccc1[O-])c1ccccc1O.O=C(N/N=C/c1ccccc1[O-])c1ccccc1O.[Fe+2]` the T/C [16] was 103 % of control, the T/C [17] was 108 % of control and the T/C [18] was 94 % of control.

`Cn1c(=O)c2c(Nc3ccccc3)ncnc2n(C)c1=O` was tested, and the T/C (dose: 35.0 mg/kg/injection, schedule: Q01DX005 (ip), vehicle: saline with Tween-80) was 87 % of control and the T/C (dose: 70.0 mg/kg/injection, schedule: Q01DX005 (ip), vehicle: saline with Tween-80) was 87 % of control.

With `CC1(C)CC(=O)C=C(OCCc2ccccc2)C1` the T/C [11] was 100 % of control, the T/C [12] was 100 % of control and the T/C [13] was 95 % of control.

`CCOC(=O)N(CCF)N=O` was tested, and the T/C (dose: 3.12 mg/kg/injection, schedule: Q01DX001 (ip), vehicle: saline with Tween-80) was 108 % of control and 96 % of control, the T/C (dose: 6.25 mg/kg/injection, schedule: Q01DX001 (ip), vehicle: saline with Tween-80) was 108 % of control and 114 % of control and the T/C (dose: 12.5 mg/kg/injection, schedule: Q01DX001 (ip), vehicle: saline with Tween-80) was 124 % of control. For the same molecule, the T/C (dose: 25.0 mg/kg/injection, schedule: Q01DX001 (ip), vehicle: saline with Tween-80) was 117 % of control.

In the case of `COc1ccc(C2=C(Cl)C(=O)N(c3ccc(Cl)cc3)C(=O)C2(Cl)Cl)cc1`, the T/C (dose: 100.0 mg/kg/injection, schedule: Q04DX002 (ip), vehicle: Klucel (hydroxypropylcellulose) (HPC)) is reported as 101 % of control, the T/C (dose: 200.0 mg/kg/injection, schedule: Q04DX002 (ip), vehicle: Klucel (hydroxypropylcellulose) (HPC)) is reported as 94 % of control and the T/C (dose: 400.0 mg/kg/injection, schedule: Q04DX002 (ip), vehicle: Klucel (hydroxypropylcellulose) (HPC)) is reported as 97 % of control.

`CCCc1c(C)nc2scc(-c3ccc(Cl)cc3)n2c1=O` was tested, and the T/C [19] was 96 % of control, the T/C [20] was 98 % of control and the T/C [21] was 96 % of control.
